Source: patent US20230150924A1, “NOVEL COMPOUND HAVING CANCER METASTASIS INHIBITORY ACTIVITY, PREPARATION METHOD THEREFOR, AND PHARMACEUTICAL COMPOSITION FOR INHIBITING CANCER METASTASIS AND INVASION OR TREATING COLORECTAL CANCER, COMPRISING COMPOUND” (CELLGENTEK CO., LTD., priority 2019, published 2023)
Read-outs that look alike come from different tables or passages of the source.

Assays:
[1] = test system: KAI1 promoter; test: KAI1 promoter luciferase reporter assay in transfected Caco2 cells; assay type: cell-based, human; conditions: Homo sapiens, Caco-2, 16 h, read-out: Relative KAI promoter activity
[2] = test system: invasion of colorectal cancer cells; test: In vivo relative invation (invasion; EV and KITENIN controls, no method described); conditions: relative to EV (=1); KIT = KITENIN
[3] = 1 μM compound, 16 hours, transfected Caco2 cells, luciferase activity relative to DMSO control (=1)

Row | Compound | fold induction at 1 µM [1, 3] | In vivo relative invation [2] | fold induction at 1 µM [1]
1 | O=C(CNC(=O)c1ccc(OC(F)(F)F)cc1)c1ccccc1 [Example 38, N-(2-oxo-2-phenylethyl)-4-(trifluoromethoxy)benzamide] | 1.57 | 1.119 | –
2 | O=C(CNC(=O)c1ccccc1OC1CCN(S(=O)(=O)c2ccc(Cl)cc2)CC1)c1ccccc1 [Example 186, 2-((1-((4-chlorophenyl)sulfonyl)piperidin-4-yl)oxy)-N-(2-oxo-2-phenylethyl)benzamide] | 1.06 | 1.145 | –
3 | COc1cccc(C(=O)CNC(=O)c2cccc(CN3CCN(c4ccccc4OC)CC3)c2)c1 [Example 282, N-(2-(3-methoxyphenyl)-2-oxoethyl)-3-((4-(2-methoxyphenyl)piperazin-1-yl)methyl)benzamide] | 1.47 | 1.214 | –
4 | CC(Oc1ccccc1)C(=O)N1CCC(Oc2ccccc2C(=O)NCC(=O)c2ccccc2)CC1 (centres unmarked) [Example 152, N-(2-oxo-2-phenylethyl)-2-((1-(2-phenoxypropanoyl)piperidin-4-yl)oxy)benzamide] | 1.08 | 1.16 | –
5 | O=C(CNC(=O)c1ccccc1OC1CCN(C(=O)c2ccc(F)c(F)c2)CC1)c1ccccc1 [Example 196, 2-((1-(3,4-difluorobenzoyl)piperidin-4-yl)oxy)-N-(2-oxo-2-phenylethyl)benzamide] | 0.84 | 1.113 | –
6 | O=C(CNC(=O)c1ccco1)c1ccccc1 [Example 5, N-(2-oxo-2-phenylethyl)furan-2-carboxamide] | – | 0.812 | 1.98
7 | CC(C)CCNC(=O)COc1ccccc1C(=O)NCC(=O)c1ccccc1 [Example 229, 2-(2-(isopentylamino)-2-oxoethoxy)-N-(2-oxo-2-phenylethyl)benzamide] | 1.06 | 1.245 | –
8 | COc1cccc(C(=O)CNC(=O)c2cccc(CN3CCN(C(=O)OC(C)(C)C)CC3)c2)c1 [Example 289, tert-butyl 4-(3-((2-(3-methoxyphenyl)-2-oxoethyl)carbamoyl)benzyl)piperazine-1-carboxylate] | 1.61 | 1.263 | –
9 | Cc1cc(C)cc(C(=O)NCC(=O)c2ccc(Cl)cc2)c1 [Example 83, N-(2-(4-chlorophenyl)-2-oxoethyl)-3,5-dimethylbenzamide] | 0.8 | 1.171 | –
10 | O=C(CNC(=O)c1cccc(Cl)c1)c1ccc(Cl)cc1 [Example 47, 3-chloro-N-(2-(4-chlorophenyl)-2-oxoethyl)benzamide] | 0.76 | 0.9038 | –
11 | O=C(CNC(=O)c1ccc(F)cc1)c1ccccc1 [Example 4, 4-fluoro-N-(2-oxo-2-phenylethyl)benzamide] | – | 1.084 | 1.88
12 | O=C(CNC(=O)c1ccc(F)c(F)c1)c1ccc(Cl)cc1 [Example 78, N-(2-(4-chlorophenyl)-2-oxoethyl)-3,4ifluorobenzamide] | 0.9 | 1.17 | –
13 | COc1ccccc1N1CCN(Cc2ccc(C(=O)NCC(=O)c3ccccc3)cc2)CC1 [Example 259, 4-((4-(2-methoxyphenyl)piperazin-1-yl)methyl)-N-(2-oxo-2-phenylethyl)benzamide] | 1.23 | 1.251 | –
14 | C=CCN(CC=C)Cc1cccc(C(=O)NCC(=O)c2ccccc2)c1 [Example 241, 3-((diallylamino)methyl)-N-(2-oxo-2-phenylethyl)benzamide] | 1.1 | 1.126 | –
15 | O=C(CNC(=O)c1ccccc1OC1CCN(C(=O)C2CCCCC2)CC1)c1ccccc1 [Example 165, 2-((1-(cyclohexanecarbonyl)piperidin-4-yl)oxy)-N-(2-oxo-2-phenylethyl)benzamide] | 1.07 | 1.133 | –
16 | CC(C)N(C)Cc1cccc(C(=O)NCC(=O)c2ccccc2)c1 [Example 233, 3-((isopropyl(methyl)amino)methyl)-N-(2-oxo-2-phenylethyl)benzamide] | 1.15 | 1.026 | –
17 | CCOC(=O)N1CCN(Cc2ccc(C(=O)NCC(=O)c3ccccc3)cc2)CC1 [Example 277, ethyl 4-(4-((2-oxo-2-phenylethyl)carbamoyl)benzyl)piperazine-1-carboxylate] | 1.3 | 1.126 | –
18 | CN(C)C(=O)N1CCC(Oc2ccccc2C(=O)NCC(=O)c2ccccc2)CC1 [Example 180, N,N-dimethyl-4-(2-((2-oxo-2-phenylethyl)carbamoyl)phenoxy) piperidine-1-carboxamide] | 1.09 | 1.253 | –
19 | COc1cccc(C(=O)CNC(=O)c2cccc(CN(C)C3CCCCC3)c2)c1 [Example 280, 3-((cyclohexyl(methyl)amino)methyl)-N-(2-(3-methoxyphenyl)-2-oxoethyl)benzamide] | 1.63 | 1.195 | –
20 | CCOC(=O)N1CCN(Cc2ccccc2C(=O)NCC(=O)c2ccccc2)CC1 [Example 305, ethyl 4-(2-((2-oxo-2-phenylethyl)carbamoyl)benzyl)piperazine-1-carboxylate] | 1.14 | 1.186 | –
21 | C=CC(=O)NCC(=O)c1ccc(Cl)cc1 [Example 50, N-(2-(4-chlorophenyl)-2-oxoethyl)acrylamide] | 0.94 | 1.089 | –
22 | CN(C)c1ccc(C(=O)CNC(=O)c2cccc(C(F)(F)F)c2)cc1 [Example 113, N-(2-(4-(dimethylamino)phenyl)-2-oxoethyl)-3-(trifluoromethyl)benzamide] | 1.4 | 1.167 | –
23 | O=C(CNC(=O)c1cc(C(F)(F)F)cc(C(F)(F)F)c1)c1ccc(Cl)cc1 [Example 72, N-(2-(4-chlorophenyl)-2-oxoethyl)-3,5-bis(trifluoromethyl)benzamide] | 0.8 | 1.044 | –
24 | O=C(COc1ccccc1C(=O)NCC(=O)c1ccccc1)NCc1ccc2c(c1)OCO2 [Example 212] | 1.01 | 1.219 | –
25 | CC(C)(C)C(=O)NCC(=O)c1ccccc1 [Example 24, N-(2-oxo-2-phenylethyl)pivalamide] | 0.84 | 1.128 | –
26 | O=C(CNC(=O)c1ccccc1CN1CCN(c2ccccn2)CC1)c1ccccc1 [Example 302, N-(2-oxo-2-phenylethyl)-2-((4-(pyridin-2-yl)piperazin-1-yl)methyl)benzamide] | 1.41 | 1.175 | –
27 | O=C(CNC(=O)c1ccccc1OC1CCN(C(=O)c2ccco2)CC1)c1ccccc1 [Example 155, 2-((1-(furan-2-carbonyl)piperidin-4-yl)oxy)-N-(2-oxo-2-phenylethyl)benzamide] | 0.99 | 1.151 | –
28 | CN(C)c1ccc(C(=O)CNC(=O)c2ccc(Cl)cc2)cc1 [Example 88, 4-chloro-N-(2-(4-(dimethylamino)phenyl)-2-oxoethyl)benzamide] | 1.35 | 0.9216 | –
